This passage reports IC50 and melting point results from patent US11873292B2, “Trans-indoline cyclopropylamine chemical compound, and method for preparation, pharmaceutical composition, and use thereof” (Shanghai Institute of Materia Medica, Chinese Academy of …, priority 2016, dated 2024).

Where two headings read alike, the source gives them in different places. A value given as a limit tells only on which side of the number the result lay.

What is called melting point is the temperature, or range, at which the solid turns liquid.

In one series the target is Human recombinant LSD1 (Homo sapiens (Human), UniProt O60341). The experiment in a line: LSD1 in vitro activity assay (LANCE Ultra LSD1 Histone H3-Lysine 4 Demethylase Assay). The format is biochemical. Conditions: LSD1 inhibition. A general note: TR-FRET usually uses a lanthanide donor and a delayed reading to cut background.
For series [1], the system named is Leukemia cell line MV4-11. The experiment in a line: Growth-inhibitory activity by MTS method. The format is cell-based. Particulars: Homo sapiens, MV4-11 cells. An excerpt:
MTS assay was used to detect the growth inhibitory effect of tested compounds on leukemia cell MV (4:11), the principle of which was that succinate dehydrogenase in mitochondria in living cells can reduce exogenous thiazole blue to insoluble Blue crystalline Formazan.
MATERIALS: Leukemia cell line MV4-11: pediatric acute lymphocytic leukemia, immunological double phenotype, AF4-MLL fusion t (4,11), is a cell growth inhibitory cell line of LSD1 inhibitor (Cancer cell. 2012, 17; 21(4): 473-487).
1. MV4-11 cells in the logarithmic growth phase were taken, accurately counted 16000 cells/mL, and the diluted cell solution was added to a 96-well plate at 90 μL per well.
2. Fresh medium was taken and sequentially added to a 96-well plate with cell fluid, 90 μL per well.
3. In the compound plate, the compound to be tested at a concentration of 10 mM and the positive compounds ORY-1001 and GSK2879552 were taken and subjected to a 3-fold concentration gradient dilution with DMSO, 8 points for each.
4. 2 μL of the diluted compound was separately added to a 96-well plate containing 98 μL of blank medium, and DMSO group was added with 2 μL of DMSO into 98 μL of blank medium, and mixed for use.
5. The compound homogeneously mixed with the medium was separately added to a 96-well plate in which cells were plated in triplicate, 20 μL per well, and well mixed. In the blank group, 200 μL of IMDM medium was added, and in the DMSO group, 180 μL of the cell-containing medium in DMSO diluted with the medium was added.
6. […]
7. After 10 days, MTS was added and the values were read after 2.5 h of incubation.

The target of a further series is human recombinant MAOB (Homo sapiens (Human), UniProt P27338). The experiment in a line: MAOB in vitro activity experiment (MAO-Glo). The format is biochemical.
Sequence of human recombinant MAOB (P27338 whole entry): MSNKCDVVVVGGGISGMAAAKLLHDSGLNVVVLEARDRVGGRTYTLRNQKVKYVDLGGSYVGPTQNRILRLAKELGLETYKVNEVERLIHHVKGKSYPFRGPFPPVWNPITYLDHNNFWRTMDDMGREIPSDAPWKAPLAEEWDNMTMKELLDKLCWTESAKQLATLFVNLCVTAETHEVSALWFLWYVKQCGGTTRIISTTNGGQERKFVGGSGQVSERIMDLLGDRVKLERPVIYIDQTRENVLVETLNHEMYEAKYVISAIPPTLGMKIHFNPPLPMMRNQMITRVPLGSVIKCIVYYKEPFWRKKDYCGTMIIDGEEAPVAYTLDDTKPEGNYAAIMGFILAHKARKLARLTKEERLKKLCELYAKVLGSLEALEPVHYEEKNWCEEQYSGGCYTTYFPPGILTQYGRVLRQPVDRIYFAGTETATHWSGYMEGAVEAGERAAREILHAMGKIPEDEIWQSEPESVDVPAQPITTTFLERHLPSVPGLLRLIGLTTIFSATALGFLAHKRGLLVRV
The next series has as its target Human recombinant MAOA (Homo sapiens (Human), UniProt P21397). The experiment in a line: MAOA in vitro activity experiment (MAO-Glo). The format is biochemical.

Sequence of Human recombinant MAOA (P21397 whole entry): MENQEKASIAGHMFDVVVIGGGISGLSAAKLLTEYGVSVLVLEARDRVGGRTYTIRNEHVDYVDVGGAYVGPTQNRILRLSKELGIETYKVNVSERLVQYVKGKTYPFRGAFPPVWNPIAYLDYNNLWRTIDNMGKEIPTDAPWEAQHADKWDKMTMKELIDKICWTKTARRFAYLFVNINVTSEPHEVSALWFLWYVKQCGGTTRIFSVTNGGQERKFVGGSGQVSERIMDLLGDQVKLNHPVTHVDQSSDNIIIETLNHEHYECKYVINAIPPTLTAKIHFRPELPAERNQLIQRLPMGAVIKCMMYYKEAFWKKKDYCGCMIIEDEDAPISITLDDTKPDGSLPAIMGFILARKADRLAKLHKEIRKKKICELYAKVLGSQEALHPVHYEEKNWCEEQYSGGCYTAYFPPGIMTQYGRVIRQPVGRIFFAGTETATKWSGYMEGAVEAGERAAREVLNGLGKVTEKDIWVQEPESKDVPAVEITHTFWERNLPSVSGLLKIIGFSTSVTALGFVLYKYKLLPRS

The compound `N[C@@H]1C[C@H]1c1ccc2c(c1)CCN2S(=O)(=O)c1ccccc1` (relative stereo) [Compound A1, Trans-2-(1-(phenylsulfonyl)indolin-5-yl)cyclopropylamine] showed a melting point of 190 to 193 °C. In addition, the IC50 at Human recombinant LSD1 came out at 1.79 ± 0.0884 µM.

With `O=S(=O)(c1ccccc1)N1CCc2cc([C@@H]3C[C@H]3NC3CCNCC3)ccc21` (relative stereo) [Compound A15, trans-N-(4-piperidinyl)-2-(1-(phenylsulfonyl)indolin-5-yl)cyclopropylamine], the IC50 in series [1] (3 D, read-out: MTS 3 D) is 3.4 ± 1.64 µM; in series [1] (10 D, read-out: MTS 10 D), 0.18 ± 0.49 µM; at human recombinant MAOB, above 100 µM; on Human recombinant MAOA, above 100 µM; on Human recombinant LSD1 it was 0.0227 ± 0.00037 µM.

Take `O=S(=O)(c1ccccc1)N1CCc2cc([C@@H]3C[C@H]3NCCC3CCNCC3)ccc21` (relative stereo) [Compound A16, trans-N-(4-piperidinylethyl)-2-(1-(phenylsulfonyl)indolin-5-yl)cyclopropylamine]: the IC50 in series [1] (3 D, read-out: MTS 3 D) was 8.25 ± 1.7 µM; in series [1] (10 D, read-out: MTS 10 D) it was 1.21 ± 0.4 µM; on human recombinant MAOB, above 100 µM; on Human recombinant MAOA, above 100 µM.

Compound `CC(C)(C)OC(=O)N1CCC(CN[C@@H]2C[C@H]2c2ccc3c(c2)CCN3S(=O)(=O)c2ccccc2)CC1` (relative stereo) [Compound A27, Trans-tert-butyl 4-((2-(1-(phenylsulfonyl)indolin-5-yl)cyclopropylamino)methyl)piperidine-1-carboxylate] displayed a melting point of 60 to 61 °C. Besides, the IC50 at human recombinant MAOB was above 100 µM. Further, the IC50 on Human recombinant MAOA was above 100 µM. Further, the IC50 at Human recombinant LSD1 amounted to 0.0713 ± 0.0043 µM.

`O=C(OCc1ccccc1)N1CCC(CN[C@@H]2C[C@H]2c2ccc3c(c2)CCN3S(=O)(=O)c2ccccc2)CC1` (relative stereo) [Compound A28, Trans-benzyl 4-((2-(1-(phenylsulfonyl)indolin-5-yl)cyclopropylamino)methyl)piperidine-1-carboxylate]: the melting point was 90 to 92 °C. In addition, at Human recombinant LSD1, the IC50 was determined as 0.265 ± 0.0808 µM.

On to `CC(C)(C)OC(=O)N1CCC(C(=O)N[C@@H]2C[C@H]2c2ccc3c(c2)CCN3S(=O)(=O)c2ccccc2)CC1` (relative stereo) [Compound A29, Trans-tert-butyl 4-(2-(1-(phenylsulfonyl)indolin-5-yl)cyclopropylcarbamoyl)piperidine-1-carboxylate], for which the melting point lay in the range of 146 to 148 °C. Besides, the IC50 on Human recombinant LSD1 was determined as 1.69 ± 0.449 µM.

In turn, `O=S(=O)(c1ccc(C(F)(F)F)cc1)N1CCc2cc([C@@H]3C[C@H]3NCC3CCNCC3)ccc21` (relative stereo) [Compound A34, trans-N-(piperidin-4-ylmethyl)-2-(1-(4-(trifluoromethyl)benzenesulfonyl)indolin-5-yl)cyclopropylamine] gave a melting point of 217 to 221 °C. Further, the IC50 at human recombinant MAOB is above 100 µM. The IC50 on Human recombinant MAOA was above 100 µM. Also, the IC50 on Human recombinant LSD1 is 0.0433 ± 0.00509 µM.

As to `CCCS(=O)(=O)N1CCc2cc([C@@H]3C[C@H]3NCC3CCNCC3)ccc21` (relative stereo) [Compound A41, trans-N-(piperidin-4-ylmethyl)-2-(1-(propylsulfonyl)indolin-5-yl)cyclopropylamine], the melting point was in the range of 187 to 191 °C. Besides, the IC50 at human recombinant MAOB was above 100 µM. Also, the IC50 on Human recombinant MAOA was above 100 µM.

For `O=S(=O)(N1CCc2cc([C@@H]3C[C@H]3NCC3CCNCC3)ccc21)C(F)(F)F` (relative stereo) [Compound A42, trans-N-(piperidin-4-ylmethyl)-2-(1-(trifluoromethanesulfonyl)indolin-5-yl)cyclopropylamine], the IC50 stood at 3.14 ± 0.15 µM at human recombinant MAOB and 86.6 ± 1.05 µM on Human recombinant MAOA.

Consider `O=S(=O)(C1CCCCC1)N1CCc2cc([C@@H]3C[C@H]3NCC3CCNCC3)ccc21` (relative stereo) [Compound A43, trans-2-(1-(cyclohexylsulfonyl)indolin-5-yl)-N-(piperidin-4-ylmethyl)cyclopropylamine], for which the IC50 at human recombinant MAOB and on Human recombinant MAOA was above 100 µM in each case.

Take `O=C(c1ccccc1)N1CCc2cc([C@@H]3C[C@H]3NCC3CCNCC3)ccc21` (relative stereo) [Compound A45, trans-phenyl (5-(2-(piperidin-4-ylmethylamino)cyclopropyl)indolin-1-yl)methanone]: the IC50 was above 20 µM in series [1] (3 D, read-out: MTS 3 D); 4.14 ± 3.47 µM in series [1] (10 D, read-out: MTS 10 D); 32.9 ± 1.24 µM at human recombinant MAOB; above 100 µM at Human recombinant MAOA.

As to `O=C(Cc1ccccc1)N1CCc2cc([C@@H]3C[C@H]3NCC3CCNCC3)ccc21` (relative stereo) [Compound A49, Trans-2-phenyl-1-(5-(2-(piperidin-4-ylmethylamino)cyclopropyl)indolin-1-yl)ethanone], the IC50 was above 20 µM in series [1] (3 D, read-out: MTS 3 D); 3.23 ± 3.64 µM in series [1] (10 D, read-out: MTS 10 D); above 100 µM at human recombinant MAOB; above 100 µM on Human recombinant MAOA.

For the compound `CCC(=O)N1CCc2cc([C@@H]3C[C@H]3NCC3CCNCC3)ccc21` (relative stereo) [Compound A53, Trans-1-(5-(2-(piperidin-4-ylmethylamino)cyclopropyl)indolin-1-yl)propan-1-one], the IC50 at human recombinant MAOB and at Human recombinant MAOA was above 100 µM each time.

Regarding `CCCC(=O)N1CCc2cc([C@@H]3C[C@H]3NCC3CCNCC3)ccc21` (relative stereo) [Compound A54, Trans-1-(5-(2-(piperidin-4-ylmethylamino)cyclopropyl)indolin-1-yl)butan-1-one], the IC50 on human recombinant MAOB and on Human recombinant MAOA was above 100 µM in each case.

Regarding `CCCCC(=O)N1CCc2cc([C@@H]3C[C@H]3NCC3CCNCC3)ccc21` (relative stereo) [Compound A55, Trans-1-(5-(2-(piperidin-4-ylmethylamino)cyclopropyl)indolin-1-yl)pentan-1-one], the IC50 at human recombinant MAOB and on Human recombinant MAOA was above 100 µM each time.

Regarding `COCCC(=O)N1CCc2cc([C@@H]3C[C@H]3NCC3CCNCC3)ccc21` (relative stereo) [Compound A56, Trans-3-methoxy-1-(5-(2-(piperidin-4-ylmethylamino)cyclopropyl)indolin-1-yl)propan-1-one], the IC50 on human recombinant MAOB is above 100 µM; on Human recombinant MAOA, above 100 µM; on Human recombinant LSD1, 0.0269 ± 0.0221 µM.

In the case of `CC(C)(C)C(=O)N1CCc2cc([C@@H]3C[C@H]3NCC3CCNCC3)ccc21` (relative stereo) [Compound A58, Trans-2,2-dimethyl-1-(5-(2-(piperidin-4-ylmethylamino)cyclopropyl)indolin-1-yl)propan-1-one], the IC50 was above 20 µM in series [1] (3 D, read-out: MTS 3 D); 1.23 ± 1.13 µM in series [1] (10 D, read-out: MTS 10 D); 70.7 ± 12.6 µM at human recombinant MAOB; above 100 µM on Human recombinant MAOA.

Consider `O=C(C1CCCCC1)N1CCc2cc([C@@H]3C[C@H]3NCC3CCNCC3)ccc21` (relative stereo) [Compound A59, Trans-cyclohexyl (5-(2-(piperidin-4-ylmethylamino)cyclopropyl)indolin-1-yl)methanone], for which the melting point is 166 to 168 °C.

In the case of `O=S(=O)(c1ccccc1)N1CCc2cc(C3CC3NCc3c[nH]c4ccccc34)ccc21` (stereo not shown) [Compound A8], the IC50 amounted to 1.25 ± 0.51 µM in series [1] (3 D, read-out: MTS 3 D) and 0.6 ± 0.13 µM in series [1] (10 D, read-out: MTS 10 D).

In the case of `O=S(=O)(c1ccccc1)N1CCc2cc(C3CC3NCC3CCNCC3)ccc21` (stereo not drawn) [Compound A14, trans-N-(4-piperidinylmethylene)-2-(1-(phenylsulfonyl)indolin-5-yl)cyclopropylamine], the IC50 in series [1] (3 D, read-out: MTS 3 D) worked out at 7.91 ± 1.61 µM; in series [1] (10 D, read-out: MTS 10 D) it was 1.36 ± 0.92 µM.

Regarding `NC1CCC(NC2CC2c2ccc3c(c2)CCN3S(=O)(=O)c2ccccc2)CC1` (stereo not drawn) [Compound A19, trans-N1-(2-(1-(phenylsulfonyl)indolin-5-yl)cyclopropyl)cyclohexane-1,4-diamine], the IC50 in series [1] (3 D, read-out: MTS 3 D) amounted to 8.55 ± 1.84 µM; in series [1] (10 D, read-out: MTS 10 D), 1.16 ± 0.26 µM.

In turn, `CC(C)(C)OC(=O)c1ccc(CN2CCC(CNC3CC3c3ccc4c(c3)CCN4S(=O)(=O)c3ccccc3)CC2)cc1` (stereo not drawn) [Compound A25, Trans-tert-butyl 4-((4-(2-(1-(phenylsulfonyl))indolin-5-yl)cyclopropylamino)methyl)piperidin-1-yl)methyl) benzoate] came in with a melting point of 62 to 65 °C. Further, the IC50 on Human recombinant LSD1 was determined as 0.534 ± 0.384 µM.

As to `O=C(O)c1ccc(CN2CCC(CNC3CC3c3ccc4c(c3)CCN4S(=O)(=O)c3ccccc3)CC2)cc1` (stereo not drawn) [Compound A26, Trans-4-((4-(2-(1-(phenylsulfonyl))indolin-5-yl)cyclopropylamino)methyl)piperidin-1-yl) methyl)benzoic acid], the melting point was 190 to 192 °C. In addition, the IC50 at Human recombinant LSD1 came to 0.461 ± 0.0319 µM.

`O=C(O)c1ccc(CN2CCC(CN[C@@H]3C[C@H]3c3ccccc3)CC2)cc1` [GSK2879552, GSK-2879552, reference compound]: the IC50 in series [1] (3 D, read-out: MTS 3 D) is above 20 µM; in series [1] (10 D, read-out: MTS 10 D), 1.81 µM; on human recombinant MAOB, above 100 µM; on Human recombinant MAOA, above 100 µM; at Human recombinant LSD1, 0.404 ± 0.0308 µM.
